From patent publication US10201542B2, “Formulations of pyrimidinedione derivative compounds” (AbbVie Inc., priority 2012, dated 2019) come the findings set out here.

A short description of the data set: Solution-based crystallization study, in situ UV/Vis probe. Format: physicochemical. Particulars: absence of polymer (control); pH 6.8 buffer, start about 80 μg/mL, FIG. 13-A. How it is done: Several polymers (Kollidon VA64, HPMC E5, HPMC K3, PVP K30, and Vitamin E TPGS) were evaluated for their effectiveness in inhibiting or delaying precipitation of the free acid of Compound A through a solution-based mechanism. About 0.05 mL of a highly concentrated solution of Compound A monosodium salt monohydrate dissolved in dimethyl sulfoxide (16 mg/mL on a free acid equivalent weight basis) was added to 10 mL of pH 6.8 sodium phosphate buffer (50 mM phosphate with ionic strength adjusted to 0.155 M with sodium chloride) containing one of the polymers at one of […] different concentrations (0% (control), 0.001%, 0.01%, and 0.1% (weight polymer/volume buffer %)) to provide a supersaturated Compound A solution (about 80 μg/mL on a free acid equivalent weight basis). The supersaturated solution was continuously stirred at 300 rpm at ambient temperatures (about 26° C.) and the solution concentration was monitored for 30 minutes by an in situ UV/Vis dip probe (μDISS Profiler™, pION Inc, Woburn, Mass. 01801, USA) using an external standard.

With `COc1c(-c2ccc3cc(NS(C)(=O)=O)ccc3c2)cc(-n2ccc(=O)[nH]c2=O)cc1C(C)(C)C` [Compound A, N-(6-(3-tert-butyl-5-(2,4-dioxo-3,4-dihydropyrimidin-1(2H)-yl)-2-methoxyphenyl)naphthalen-2-yl)methanesulfonamide], the “concentration of Compound A in the solution after decrease” value was “about 20 μg/mL”.
